The subject of experiment [1] is mild to moderate severity Alzheimer's patients (MMSE=14-26). The experiment in a line: ADAS-cog11 score change in Alzheimer's patients after 14-day treatment. Type of experiment: in vivo, human. As for the experimental part: ADAS-cog11 score change from day 1 to day 14 (D1-D14), the end of 2-week treatment is compared to the ADAS-cog 1 from day 1 to day 21 (D1-D21), 7-days post treatment follow-up. With ADAS-cog 1 test scoring a greater negative score denotes greater cognitive improvement. Drug treatment of mild to moderate severity Alzheimer's patients (MMSE=14-26) with T3D-959 was for 14 days q.d. at 3 mg, 10 mg, 30 mg or 90 mg (n=number of subjects evaluable at each dose).

Experiment [2] deals with intracerebral (i.c.) Streptozotocin (STZ) rat model of Alzheimer's disease. Description: Intracerebral Streptozotocin rat model of Alzheimer's disease, Morris Water Maze testing. Type of experiment: in vivo, Long Evans rats. Particulars: 0.25 mg/kg oral gavage every other day for 14 days; control and STZ rats; tested 11 days post-dosing. As for the experimental part: The experimental rat model of Alzheimer's disease used in Table 7 involves intracerebral (i.c.) treatment with Streptozotocin (STZ), to cause brain metabolic dysfunction and insulin resistance as occurs in human sporadic Alzheimer' disease, with minimal or no systemic side-effects. Long Evans 4-week old male and female rats (8-12/group) were anesthetized by intraperitoneal (i.p.) injection of ketamine (100 mg/kg) plus xylazine (10 mg/kg). After shaving and cleaning (betadine x2 followed by 70% ethanol) the scalps, the rats were positioned in a stereotaxic frame and a midline incision was made. With subcutaneous tissue and skeletal muscle separated and retracted with small surgical hooks, the bregma and lambda areas were cleaned with 3% H2O2 soaked cotton swabs. […]
T3D-959 administration (0.25 mg/kg) to control and STZ rats was by oral gavage every other day for a period of 14-days. […] The latency to locate the platform was measured. Spatial memory and orientation were assessed by requiring the rat to locate the hidden platform from different entry points in the maze. […]
Data were analyzed by first calculating area under curves for each set of 3 trials, then averaging the AUC results within-group. […] Data were analyzed by 1-way ANOVA with Fisher post-tests. […]

With `CCc1oc(-c2ccc(OC)cc2)nc1CCOc1ccc2c(c1)CC[C@H]2CC(=O)[O-].[Na+]` [Example T3D-959], the “subjects who exhibited an improved ADAS-cog11 test score” value in experiment [1] (10 mg cohort, 14 days q.d.) is 5 of 9. The “ADAS-cog11 score change D1-D14 compared to D1-D21” value in experiment [1] (14 days q.d. at 3 mg, 10 mg, 30 mg or 90 mg, D21 = 7-days post treatment follow-up) is reported as “cognitive improvement lasting beyond the end of treatment”. Besides, the “Morris Water Maze latency to locate the platform (spatial localization and memory, AUC of trials)” value in experiment [2] is “benefited control as well as STZ-exposed rats”.

The values are drawn from patent publication US20180153860A1, “METHODS OF DOSE ADMINISTRATION FOR TREATING OR PREVENTING COGNITIVE IMPAIRMENT USING INDANE ACETIC ACID DERIVATIVES” (T3D Therapeutics, Inc., priority 2016, published 2018).
